From ChEMBL document CHEMBL3861981 (J Med Chem, 2016)

Experiments:
[1] = tested on: Hepatitis C virus; test: Antiviral activity against HCV genotype 2a JHF-1 in HCV replicon cells assessed as reduction in viral RNA replication by luciferase reporter gene assay; conditions: genotype 2a JFH-1
[2] = Cytotoxicity against human HEK293T cells assessed as decrease in cell viability
[3] = molecular target: T1, Neutrophil elastase (Homo sapiens, UniProt P08246); test: Inhibition of human leukocyte elastase
T1 sequence (P08246 whole entry): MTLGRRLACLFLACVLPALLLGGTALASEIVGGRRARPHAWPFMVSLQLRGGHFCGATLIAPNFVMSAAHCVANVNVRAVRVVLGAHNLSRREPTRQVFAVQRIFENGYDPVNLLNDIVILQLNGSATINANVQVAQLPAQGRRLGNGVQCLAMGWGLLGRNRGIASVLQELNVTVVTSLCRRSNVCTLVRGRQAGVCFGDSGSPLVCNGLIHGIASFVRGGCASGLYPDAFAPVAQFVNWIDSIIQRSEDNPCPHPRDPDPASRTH

[4] = Toxicity in dog at 20 to 200 mg/kg administered as single dose; type: organism-based, Canis lupus familiaris; conditions: in vivo
[5] = tested on: Hepatitis C virus; test: Antiviral activity against HCV genotype 1a H77 in HCV replicon cells assessed as reduction in viral RNA replication by luciferase reporter gene assay
[6] = Drug uptake in cannulated Sprague-Dawley rat liver at 15 mg/kg administered via oral gavage measured at 24 hrs post dose by LC/MS/MS analysis; type: ADME, organism-based; conditions: read-out: Drug uptake
[7] = Cardiotoxicity in anesthetized rabbit assessed as prolongation of QTcv interval at 30 mg/kg, iv administered as 10 mins infusion by electrophysiology assay; type: toxicity, organism-based, Oryctolagus cuniculus; conditions: in vivo
[8] = Cytotoxicity against human HepG2 cells assessed as decrease in cell viability
[9] = Cytotoxicity against human MRC5 cells assessed as decrease in cell viability
[10] = Half life in cannulated Sprague-Dawley rat plasma at 5 mg/kg, iv administered as 10 mins infusion by LC/MS/MS analysis; type: ADME, organism-based
[11] = Clearance in Beagle dog plasma at 1 mg/kg, iv administered as 5 mins infusion measured up to 24 hrs post dose by LC/MS/MS analysis; type: ADME, organism-based, Canis lupus familiaris
[12] = Inhibition of recombinant full length HCV genotype 1b J4L6S NS3/4A protease preincubated for 30 mins followed by substrate addition measured by FRET assay; design: species or system Hepatitis C virus subtype 1b
[13] = Inhibition of recombinant full length HCV genotype 2a HC-J6 NS3/4A protease preincubated for 30 mins followed by substrate addition measured by FRET assay; design: species or system Hepatitis C virus subtype 2a
[14] = Cardiotoxicity in dog assessed as prolongation of QTcv interval at 30 to 100 mg/kg administered as single dose by electrophysiology assay; type: toxicity, organism-based, Canis lupus familiaris; conditions: in vivo
[15] = Cardiotoxicity in rabbit heart assessed as change in heart rate at 10 uM perfused for 60 mins measured every 10 mins during perfusion by electrophysiology method relative to control; type: toxicity, tissue-based, Oryctolagus cuniculus; conditions: 1 h
[16] = molecular target: Genome polyprotein (GB virus-B, UniProt Q69422); test: Inhibition of GBV-B NS3 protease
Chain of Genome polyprotein (Q69422 941-1564 limits assumed): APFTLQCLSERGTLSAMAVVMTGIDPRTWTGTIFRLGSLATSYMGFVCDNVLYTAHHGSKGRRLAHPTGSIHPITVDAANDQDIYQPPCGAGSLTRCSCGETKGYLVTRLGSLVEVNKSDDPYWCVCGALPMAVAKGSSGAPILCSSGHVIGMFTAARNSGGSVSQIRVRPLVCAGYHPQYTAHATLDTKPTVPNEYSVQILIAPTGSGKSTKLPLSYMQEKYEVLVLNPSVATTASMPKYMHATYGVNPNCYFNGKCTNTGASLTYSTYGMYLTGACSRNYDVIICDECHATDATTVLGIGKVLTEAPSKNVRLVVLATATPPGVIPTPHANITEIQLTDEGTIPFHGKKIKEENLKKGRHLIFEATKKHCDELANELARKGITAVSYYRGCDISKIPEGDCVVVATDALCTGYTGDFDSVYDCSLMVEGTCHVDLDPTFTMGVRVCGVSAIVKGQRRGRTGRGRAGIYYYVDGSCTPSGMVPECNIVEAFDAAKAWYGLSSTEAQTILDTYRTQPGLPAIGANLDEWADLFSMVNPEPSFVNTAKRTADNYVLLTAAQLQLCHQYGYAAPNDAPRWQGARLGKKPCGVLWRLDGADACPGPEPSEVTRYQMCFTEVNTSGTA

[17] = Oral bioavailability in Beagle dog plasma at 3 mg/kg administered via gavage measured up to 24 hrs post dose by LC/MS/MS analysis; type: ADME, organism-based, Canis lupus familiaris; conditions: beagle, plasma
[18] = Inhibition of recombinant full length HCV genotype 3a S52 NS3 protease in genotype 2a replicon cells by luciferase reporter gene assay; type: cell-based; conditions: Hepatitis C virus
[19] = Inhibition of recombinant full length HCV genotype 3a S52 NS3/4A protease preincubated for 30 mins followed by substrate addition measured by FRET assay; design: species or system Hepatitis C virus S52
[20] = Half life in cynomolgus monkey plasma at 3 mg/kg, iv administered as 5 mins infusion by LC/MS/MS analysis; type: ADME, organism-based, Macaca fascicularis
[21] = Cardiotoxicity in anesthetized rabbit assessed as effect on QRS interval at 30 mg/kg, iv administered as 10 mins infusion measured up to 60 mins post dose by electrophysiology assay; type: toxicity, organism-based, Oryctolagus cuniculus; conditions: in vivo
[22] = organism: Homo sapiens; test: Inhibition of sodium channel (unknown origin) at 10 uM at 4 Hz by patch clamp assay
[23] = Inhibition of recombinant full length HCV genotype 4a ED43 NS3/4A protease preincubated for 30 mins followed by substrate addition measured by FRET assay; design: species or system Hepatitis C virus ED43
[24] = Drug uptake in rabbit heart atrium measured after 60 mins; type: ADME, Oryctolagus cuniculus, Cardiac atrium; conditions: read-out: Drug uptake
[25] = Cardiotoxicity in dog assessed as effect on heart rate at 30 to 100 mg/kg administered as single dose by electrophysiology assay; type: toxicity, organism-based, Canis lupus familiaris; conditions: in vivo
[26] = Cardiotoxicity in dog assessed as effect on PR interval at 30 to 100 mg/kg administered as single dose by electrophysiology assay; type: toxicity, organism-based, Canis lupus familiaris; conditions: in vivo
[27] = tested on: Salmonella typhimurium; test: Genotoxicity in Salmonella typhimurium in absence of S9 fraction by Ames test; type: toxicity, organism-based; conditions: salmonella enterica subsp. enterica serovar typhimurium
[28] = Cardiotoxicity in dog assessed as prolongation of QTcf interval at 30 to 100 mg/kg administered as single dose by electrophysiology assay; type: toxicity, organism-based, Canis lupus familiaris; conditions: in vivo
[29] = Cardiotoxicity in anesthetized rabbit assessed as prolongation of QTcf interval at 30 mg/kg, iv administered as 10 mins infusion by electrophysiology assay; type: toxicity, organism-based, Oryctolagus cuniculus; conditions: in vivo
[30] = Plasma concentration in rabbit at 30 mg/kg, iv administered as 10 mins infusion measured after 60 mins; type: ADME, organism-based, Oryctolagus cuniculus
[31] = Inhibition of recombinant full length HCV genotype 2b HC-J8 NS3/4A protease preincubated for 30 mins followed by substrate addition measured by FRET assay; design: species or system Hepatitis C virus subtype 2b
[32] = Oral bioavailability in cannulated Sprague-Dawley rat plasma at 15 mg/kg administered via gavage measured up to 24 hrs post dose by LC/MS/MS analysis; type: ADME, organism-based
[33] = Inhibition of recombinant full length HCV genotype 1a H77 NS3/4A protease preincubated for 30 mins followed by substrate addition measured by FRET assay; design: species or system Hepatitis C virus (isolate H77)
[34] = Cardiotoxicity in dog assessed as effect on sinoatrial node recovery time at 30 to 100 mg/kg administered as single dose by electrophysiology assay; type: toxicity, organism-based, Canis lupus familiaris; conditions: in vivo
[35] = tested on: Hepatitis C virus; test: Antiviral activity against HCV genotype 1b Con1 expressing NS3 protease infected in human Huh7.5 cells assessed as reduction in viral RNA replication by luciferase reporter gene assay; type: functional, cell-based, Hepacivirus hominis; conditions: genotype 1b Con1, Huh-7
[36] = Cardiotoxicity in rabbit heart assessed as change in sinoatrial node recovery time at 10 uM perfused for 20 mins measured for 1 min by electrophysiology method relative to control; type: toxicity, tissue-based, Oryctolagus cuniculus
[37] = Cardiotoxicity in anesthetized rabbit assessed as effect on PR interval at 30 mg/kg, iv administered as 10 mins infusion measured up to 60 mins post dose by electrophysiology assay; type: toxicity, organism-based, Oryctolagus cuniculus; conditions: in vivo
[38] = AUC in Beagle dog plasma at 3 mg/kg administered via oral gavage measured up to 24 hrs post dose by LC/MS/MS analysis; type: ADME, organism-based, Canis lupus familiaris; design: dose 3 mg/kg, time < 24 hr, route oral
[39] = Toxicity in cynomolgus monkey assessed as gastrointestinal irritation at 10 mg/kg, po administered through gavage; type: organism-based, Macaca fascicularis; conditions: in vivo
[40] = Inhibition of recombinant full length HCV genotype 4a ED43 NS3 protease in genotype 1b con1 replicon cells by luciferase reporter gene assay; conditions: Hepatitis C virus
[41] = Cardiotoxicity in rabbit heart assessed as change in sinoatrial node recovery time at 10 uM perfused for 60 mins measured every 10 mins during perfusion by electrophysiology method relative to control; type: toxicity, tissue-based, Oryctolagus cuniculus; conditions: 1 h

- EC50 [1]: 136 nM
- IC50 [3]: 21000 nM
- EC50 [5]: 4.5 nM
- concentration at 24 h [6]: 51 µM
- half-life [10]: 8.6 h
- clearance [11]: 4.3 mL/min/kg
- IC50 [12]: 1.6 nM
- IC50 [13]: 38 nM
- IC50 [16]: > 25000 nM
- bioavailability [17]: 57.5%
- EC50 [18]: 1650 nM
- IC50 [19]: 1400 nM
- half-life [20]: 6.1 h
- inhibition [22]: 46.4%
- IC50 [23]: 6 nM
- concentration at 1 h [24]: 204 µM
- concentration at 1 h [30]: 253 µM
- IC50 [31]: 220 nM
- bioavailability [32]: 86.4%
- IC50 [33]: 1.5 nM
- EC50 [35]: 4.5 nM
- AUC at 24 h [38]: 8.3 µM·h
- EC50 [40]: 2.8 nM
Structure (SMILES): COc1cnc(O[C@@H]2C[C@@H](C(=O)N[C@]3(C(=O)NS(=O)(=O)C4CC4)C[C@H]3C3CC3)N(C(=O)[C@@H](NC(=O)O[C@H](C)C(F)(F)F)C3CCCCC3)C2)c2cc(Cl)ccc12
- CC50 [2]: 8000 to 14000 nM
- Activity [4]: Non-Toxic
- Activity [7]: Non-Toxic
- CC50 [8]: 8000 to 14000 nM
- CC50 [9]: 8000 to 14000 nM
- Activity [14]: Non-Toxic
- Activity [15]: -16%
- Activity [21]: Non-Toxic
- Activity [25]: Non-Toxic
- Activity [26]: Non-Toxic
- Activity [27]: Non-Toxic
- Activity [28]: Non-Toxic
- Activity [29]: Toxic
- Activity [34]: Non-Toxic
- Activity [36]: -3%
- Activity [37]: Non-Toxic
- Activity [39]: Non-Toxic
- Activity [41]: 22%
